# Test results reported in the kinase profiling compilation of Christmann-Franck et al. (2016).
# Columns and labels:
# Assay in all cases: radiometric filter-binding kinase assay, Kinase HotSpot
# Conditions in all cases: compound 0.5 µM; ATP 10 µM
# TTK (human) = TTK (human) (UniProt P33981)
# MAP3K14 (human) = MAP3K14 (human) (UniProt Q99558)
# WNK2 (human) = WNK2 (human) (UniProt Q9Y3S1)
# ROCK2 (human) = ROCK2 (human) (UniProt O75116)
# RPS6KA3 KD1 KD2 (human) = RPS6KA3 KD1 KD2 (human) (UniProt P51812)
# CAMK1D (human) = CAMK1D (human) (UniProt Q8IU85)
# CHEK2 (human) = CHEK2 (human) (UniProt O96017)
# FER (human) = FER (human) (UniProt P16591)
# TYRO3 (human) = TYRO3 (human) (UniProt Q06418)
# PRKCB2 (human) = PRKCB2 (human) (UniProt P05771)
# FGR (human) = FGR (human) (UniProt P09769)
# HIPK4 (human) = HIPK4 (human) (UniProt Q8NE63)
# NTRK3 (human) = NTRK3 (human) (UniProt Q16288)
# PRKCZ (human) = PRKCZ (human) (UniProt Q05513)
# PAK6 (human) = PAK6 (human) (UniProt Q9NQU5)
# PTK6 (human) = PTK6 (human) (UniProt Q13882)
# IKBKE (human) = IKBKE (human) (UniProt Q14164)
# PLK2 (human) = PLK2 (human) (UniProt Q9NYY3)
# GRK5 (human) = GRK5 (human) (UniProt P34947)
# NTRK2 (human) = NTRK2 (human) (UniProt Q16620)
# CSNK1G2 (human) = CSNK1G2 (human) (UniProt P78368)
# EPHA5 (human) = EPHA5 (human) (UniProt P54756)
# CSF1R (human) = CSF1R (human) (UniProt P07333)
# CLK2 (human) = CLK2 (human) (UniProt P49760)
# MAPK8 (human) = MAPK8 (human) (UniProt P45983)
# STK25 (human) = STK25 (human) (UniProt O00506)
# PRKD1 (human) = PRKD1 (human) (UniProt Q15139)
# MAPK14 (human) = MAPK14 (human) (UniProt Q16539)
# ADRBK2 (human) = ADRBK2 (human) (UniProt P35626)
# ALK (human) = ALK (human) (UniProt Q9UM73)
# CDK6 CCND3 (human) = CDK6 CCND3 (human) (UniProt P30281+Q00534)
# EPHA2 (human) = EPHA2 (human) (UniProt P29317)
# NUAK2 (human) = NUAK2 (human) (UniProt Q9H093)
# NUAK1 (human) = NUAK1 (human) (UniProt O60285)
# PTK2B (human) = PTK2B (human) (UniProt Q14289)
# PRKCB1 (human) = PRKCB1 (human) (UniProt P05771)
# MATK (human) = MATK (human) (UniProt P42679)
# CDK1 CCNA2 (human) = CDK1 CCNA2 (human) (UniProt P06493+P20248)
# MAPK13 (human) = MAPK13 (human) (UniProt O15264)
# MAPK10 (human) = MAPK10 (human) (UniProt P53779)
# CDK1 CCNB1 (human) = CDK1 CCNB1 (human) (UniProt P06493+P14635)
# AKT3 (human) = AKT3 (human) (UniProt Q9Y243)
# Sequence of CDK1 CCNB1 (human) (P06493 whole entry, looked up): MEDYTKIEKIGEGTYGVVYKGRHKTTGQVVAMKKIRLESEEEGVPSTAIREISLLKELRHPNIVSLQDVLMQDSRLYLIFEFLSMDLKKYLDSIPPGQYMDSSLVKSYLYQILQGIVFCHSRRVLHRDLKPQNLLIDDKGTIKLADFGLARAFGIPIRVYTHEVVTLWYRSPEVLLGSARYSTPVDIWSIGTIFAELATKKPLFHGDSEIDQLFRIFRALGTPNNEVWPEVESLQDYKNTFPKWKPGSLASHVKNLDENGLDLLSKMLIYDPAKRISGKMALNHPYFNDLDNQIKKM
# Sequence of CDK1 CCNB1 (human) (P14635 whole entry, looked up): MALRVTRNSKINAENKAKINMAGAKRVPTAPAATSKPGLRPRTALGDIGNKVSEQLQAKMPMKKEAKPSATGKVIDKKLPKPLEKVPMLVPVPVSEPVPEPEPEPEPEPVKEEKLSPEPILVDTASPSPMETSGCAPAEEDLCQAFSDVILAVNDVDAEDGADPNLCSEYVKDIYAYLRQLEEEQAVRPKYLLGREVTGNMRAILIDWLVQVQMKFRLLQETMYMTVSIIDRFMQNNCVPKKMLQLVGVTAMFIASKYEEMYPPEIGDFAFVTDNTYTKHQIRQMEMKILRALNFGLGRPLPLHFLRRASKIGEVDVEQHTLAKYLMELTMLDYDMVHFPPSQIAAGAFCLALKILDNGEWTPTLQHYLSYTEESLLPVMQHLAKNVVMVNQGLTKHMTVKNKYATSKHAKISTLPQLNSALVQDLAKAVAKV
# Sequence of CDK1 CCNA2 (human) (P06493 whole entry, looked up): as the sequence (P06493 whole entry, looked up) above
# Sequence of CDK1 CCNA2 (human) (P20248 whole entry, looked up): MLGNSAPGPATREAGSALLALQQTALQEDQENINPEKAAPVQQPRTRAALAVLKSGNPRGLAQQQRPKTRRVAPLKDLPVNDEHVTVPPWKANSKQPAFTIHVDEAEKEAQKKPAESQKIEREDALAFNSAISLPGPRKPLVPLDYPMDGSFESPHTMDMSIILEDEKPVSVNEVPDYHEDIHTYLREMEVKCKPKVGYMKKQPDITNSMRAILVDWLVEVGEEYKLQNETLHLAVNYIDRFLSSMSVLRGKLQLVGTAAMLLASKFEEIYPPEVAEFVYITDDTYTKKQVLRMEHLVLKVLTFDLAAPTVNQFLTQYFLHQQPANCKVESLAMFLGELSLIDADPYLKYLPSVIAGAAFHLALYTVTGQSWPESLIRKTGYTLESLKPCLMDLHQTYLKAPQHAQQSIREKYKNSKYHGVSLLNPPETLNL
# Sequence of MATK (human) (P42679 whole entry, looked up): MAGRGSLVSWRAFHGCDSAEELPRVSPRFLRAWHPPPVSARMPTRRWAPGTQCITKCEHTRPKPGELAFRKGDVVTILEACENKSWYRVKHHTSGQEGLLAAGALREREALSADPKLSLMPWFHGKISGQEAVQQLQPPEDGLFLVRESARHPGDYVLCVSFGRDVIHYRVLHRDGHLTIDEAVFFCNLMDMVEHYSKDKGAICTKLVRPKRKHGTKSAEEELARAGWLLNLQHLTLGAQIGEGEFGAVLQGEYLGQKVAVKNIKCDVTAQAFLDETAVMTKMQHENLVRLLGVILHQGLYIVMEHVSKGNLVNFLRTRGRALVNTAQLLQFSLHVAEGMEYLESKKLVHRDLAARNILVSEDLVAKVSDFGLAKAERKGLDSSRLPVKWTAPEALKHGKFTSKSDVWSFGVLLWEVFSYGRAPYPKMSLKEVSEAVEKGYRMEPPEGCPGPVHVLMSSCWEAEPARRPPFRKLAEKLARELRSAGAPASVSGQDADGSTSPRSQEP
# Sequence of WNK2 (human) (Q9Y3S1 whole entry, looked up): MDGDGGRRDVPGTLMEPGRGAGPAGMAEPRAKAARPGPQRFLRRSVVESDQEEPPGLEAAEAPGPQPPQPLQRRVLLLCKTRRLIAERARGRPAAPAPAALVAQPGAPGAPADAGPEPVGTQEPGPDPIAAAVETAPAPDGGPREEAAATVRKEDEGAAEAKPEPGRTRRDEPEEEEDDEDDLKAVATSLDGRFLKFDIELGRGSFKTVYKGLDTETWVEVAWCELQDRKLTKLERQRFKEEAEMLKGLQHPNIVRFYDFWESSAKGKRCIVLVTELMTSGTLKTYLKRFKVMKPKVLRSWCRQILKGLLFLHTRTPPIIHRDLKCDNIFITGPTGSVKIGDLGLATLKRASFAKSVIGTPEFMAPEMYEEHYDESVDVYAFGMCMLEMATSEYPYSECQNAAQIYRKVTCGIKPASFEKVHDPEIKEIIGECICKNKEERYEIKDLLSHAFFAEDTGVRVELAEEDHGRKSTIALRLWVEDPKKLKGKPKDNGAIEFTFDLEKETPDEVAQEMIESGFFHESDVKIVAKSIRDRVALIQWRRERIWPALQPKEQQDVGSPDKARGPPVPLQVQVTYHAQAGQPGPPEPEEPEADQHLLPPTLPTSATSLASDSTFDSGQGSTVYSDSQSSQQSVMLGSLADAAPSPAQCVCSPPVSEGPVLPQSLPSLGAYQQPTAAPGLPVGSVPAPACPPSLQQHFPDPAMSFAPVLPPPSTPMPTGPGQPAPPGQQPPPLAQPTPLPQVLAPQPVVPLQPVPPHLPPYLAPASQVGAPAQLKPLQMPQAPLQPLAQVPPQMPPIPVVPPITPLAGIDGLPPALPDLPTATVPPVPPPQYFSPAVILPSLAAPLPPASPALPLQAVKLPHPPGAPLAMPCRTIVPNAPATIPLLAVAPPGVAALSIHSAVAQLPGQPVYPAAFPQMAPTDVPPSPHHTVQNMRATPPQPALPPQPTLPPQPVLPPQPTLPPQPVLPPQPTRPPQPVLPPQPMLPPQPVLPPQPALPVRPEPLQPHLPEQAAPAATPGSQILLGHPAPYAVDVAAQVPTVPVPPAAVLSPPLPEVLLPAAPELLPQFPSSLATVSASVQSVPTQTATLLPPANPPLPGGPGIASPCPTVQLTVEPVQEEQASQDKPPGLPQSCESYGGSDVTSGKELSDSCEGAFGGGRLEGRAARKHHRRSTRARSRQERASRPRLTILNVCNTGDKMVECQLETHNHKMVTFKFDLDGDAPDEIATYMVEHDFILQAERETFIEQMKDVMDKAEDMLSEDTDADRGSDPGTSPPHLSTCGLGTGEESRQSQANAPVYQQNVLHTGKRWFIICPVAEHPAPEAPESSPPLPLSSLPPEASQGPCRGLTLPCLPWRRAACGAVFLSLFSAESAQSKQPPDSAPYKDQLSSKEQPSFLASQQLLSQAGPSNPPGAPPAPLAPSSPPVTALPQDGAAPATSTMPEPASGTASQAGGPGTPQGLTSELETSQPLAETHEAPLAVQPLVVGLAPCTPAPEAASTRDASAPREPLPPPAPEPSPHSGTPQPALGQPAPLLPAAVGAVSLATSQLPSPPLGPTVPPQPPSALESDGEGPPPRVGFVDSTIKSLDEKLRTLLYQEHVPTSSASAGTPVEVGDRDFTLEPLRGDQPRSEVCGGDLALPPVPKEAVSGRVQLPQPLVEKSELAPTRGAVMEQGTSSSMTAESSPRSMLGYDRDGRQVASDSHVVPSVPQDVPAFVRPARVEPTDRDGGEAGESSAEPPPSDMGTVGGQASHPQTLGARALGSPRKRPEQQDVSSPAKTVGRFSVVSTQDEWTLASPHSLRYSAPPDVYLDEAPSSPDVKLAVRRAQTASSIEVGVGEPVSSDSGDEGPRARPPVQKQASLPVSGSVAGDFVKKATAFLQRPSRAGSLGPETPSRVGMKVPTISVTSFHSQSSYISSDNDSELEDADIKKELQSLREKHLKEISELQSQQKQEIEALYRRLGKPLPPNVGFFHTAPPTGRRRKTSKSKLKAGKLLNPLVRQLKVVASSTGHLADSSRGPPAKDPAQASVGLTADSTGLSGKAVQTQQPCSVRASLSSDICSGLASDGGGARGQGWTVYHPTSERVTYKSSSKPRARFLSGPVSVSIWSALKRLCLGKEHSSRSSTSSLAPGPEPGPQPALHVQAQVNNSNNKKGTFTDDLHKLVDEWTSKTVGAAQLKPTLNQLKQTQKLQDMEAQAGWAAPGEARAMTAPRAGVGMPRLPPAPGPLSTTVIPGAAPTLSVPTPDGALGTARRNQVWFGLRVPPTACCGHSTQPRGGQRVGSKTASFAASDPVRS
# Sequence of ADRBK2 (human) (P35626 whole entry, looked up): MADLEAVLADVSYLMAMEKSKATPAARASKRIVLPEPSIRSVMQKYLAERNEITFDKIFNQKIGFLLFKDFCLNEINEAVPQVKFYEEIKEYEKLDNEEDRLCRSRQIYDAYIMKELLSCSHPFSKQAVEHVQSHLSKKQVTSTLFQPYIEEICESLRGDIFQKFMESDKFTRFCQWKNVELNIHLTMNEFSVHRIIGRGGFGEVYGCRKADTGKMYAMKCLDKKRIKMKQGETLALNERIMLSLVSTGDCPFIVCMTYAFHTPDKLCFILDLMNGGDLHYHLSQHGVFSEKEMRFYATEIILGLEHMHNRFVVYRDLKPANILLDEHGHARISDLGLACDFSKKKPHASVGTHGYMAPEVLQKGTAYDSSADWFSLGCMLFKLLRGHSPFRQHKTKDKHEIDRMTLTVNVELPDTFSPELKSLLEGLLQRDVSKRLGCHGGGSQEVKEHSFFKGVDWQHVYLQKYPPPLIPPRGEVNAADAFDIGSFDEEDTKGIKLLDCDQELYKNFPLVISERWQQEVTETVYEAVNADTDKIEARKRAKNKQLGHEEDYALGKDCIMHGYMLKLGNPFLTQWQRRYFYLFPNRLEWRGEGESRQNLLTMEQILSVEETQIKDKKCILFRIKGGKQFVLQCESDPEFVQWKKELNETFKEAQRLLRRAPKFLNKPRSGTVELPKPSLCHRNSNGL
structure (smiles),measurement,setting,value
CC(C)c1nn(-c2c(Cl)cccc2Cl)c2nc(Cc3ccc(OCCO)cc3)nc(O)c12,residual activity,TTK (human),101%
same,residual activity,MAP3K14 (human),97.3%
same,residual activity,WNK2 (human),95.7%
same,residual activity,ROCK2 (human),92.5%
same,residual activity,RPS6KA3 KD1 KD2 (human),88.4%
same,residual activity,CAMK1D (human),102%
same,residual activity,CHEK2 (human),98.8%
same,residual activity,FER (human),89.4%
same,residual activity,TYRO3 (human),97.8%
same,residual activity,PRKCB2 (human),96.7%
same,residual activity,FGR (human),92%
same,residual activity,HIPK4 (human),94.7%
same,residual activity,NTRK3 (human),90.5%
same,residual activity,PRKCZ (human),96.9%
same,residual activity,PAK6 (human),102%
same,residual activity,PTK6 (human),87.1%
same,residual activity,IKBKE (human),95.6%
same,residual activity,PLK2 (human),99.8%
same,residual activity,GRK5 (human),108%
same,residual activity,NTRK2 (human),101%
same,residual activity,CSNK1G2 (human),95.7%
same,residual activity,EPHA5 (human),110%
same,residual activity,CSF1R (human),94.6%
same,residual activity,CLK2 (human),44%
same,residual activity,MAPK8 (human),95.4%
same,residual activity,STK25 (human),68.1%
same,residual activity,PRKD1 (human),103%
same,residual activity,MAPK14 (human),96.8%
same,residual activity,ADRBK2 (human),87.9%
same,residual activity,ALK (human),103%
same,residual activity,CDK6 CCND3 (human),46.6%
same,residual activity,EPHA2 (human),100%
same,residual activity,NUAK2 (human),91.7%
same,residual activity,NUAK1 (human),96.9%
same,residual activity,PTK2B (human),96.1%
same,residual activity,PRKCB1 (human),101%
same,residual activity,MATK (human),91.1%
same,residual activity,CDK1 CCNA2 (human),7.71%
same,residual activity,MAPK13 (human),104%
same,residual activity,MAPK10 (human),109%
same,residual activity,CDK1 CCNB1 (human),-1.2%
Cn1sc(=O)n(Cc2ccccc2)c1=O,residual activity,TTK (human),101%
same,residual activity,MAP3K14 (human),81.6%
same,residual activity,WNK2 (human),99.1%
same,residual activity,ROCK2 (human),88.8%
same,residual activity,RPS6KA3 KD1 KD2 (human),97.5%
same,residual activity,CAMK1D (human),97.1%
same,residual activity,CHEK2 (human),108%
same,residual activity,FER (human),101%
same,residual activity,TYRO3 (human),99.9%
same,residual activity,PRKCB2 (human),111%
same,residual activity,FGR (human),101%
same,residual activity,HIPK4 (human),98.2%
same,residual activity,NTRK3 (human),107%
same,residual activity,PRKCZ (human),101%
same,residual activity,PAK6 (human),93.4%
same,residual activity,PTK6 (human),96.7%
same,residual activity,IKBKE (human),96.4%
same,residual activity,PLK2 (human),106%
same,residual activity,GRK5 (human),93.6%
same,residual activity,CSNK1G2 (human),95%
same,residual activity,EPHA5 (human),103%
same,residual activity,CSF1R (human),98.6%
same,residual activity,CLK2 (human),98.5%
same,residual activity,MAPK8 (human),85.5%
same,residual activity,STK25 (human),96.2%
same,residual activity,PRKD1 (human),101%
same,residual activity,MAPK14 (human),101%
same,residual activity,ADRBK2 (human),99.6%
same,residual activity,ALK (human),94.1%
same,residual activity,AKT3 (human),96.6%
same,residual activity,CDK6 CCND3 (human),100%
same,residual activity,EPHA2 (human),96.5%
same,residual activity,NUAK2 (human),97.7%
same,residual activity,NUAK1 (human),102%
same,residual activity,PTK2B (human),91%
same,residual activity,PRKCB1 (human),110%
same,residual activity,MATK (human),95.3%
same,residual activity,CDK1 CCNA2 (human),104%
same,residual activity,MAPK13 (human),97.5%
same,residual activity,MAPK10 (human),91.1%
same,residual activity,CDK1 CCNB1 (human),95.7%
COc1cc2ncc(-c3ccccc3)nc2cc1OC,residual activity,TTK (human),125%
same,residual activity,MAP3K14 (human),115%
same,residual activity,WNK2 (human),104%
same,residual activity,ROCK2 (human),96.1%
same,residual activity,RPS6KA3 KD1 KD2 (human),101%
same,residual activity,CAMK1D (human),96.6%
same,residual activity,CHEK2 (human),94.2%
same,residual activity,FER (human),80%
same,residual activity,TYRO3 (human),100%
same,residual activity,PRKCB2 (human),88.8%
same,residual activity,FGR (human),85.4%
same,residual activity,HIPK4 (human),86.4%
same,residual activity,NTRK3 (human),89.1%
same,residual activity,PRKCZ (human),96.3%
same,residual activity,PAK6 (human),82.8%
same,residual activity,PTK6 (human),80.8%
same,residual activity,IKBKE (human),98.9%
same,residual activity,GRK5 (human),106%
same,residual activity,NTRK2 (human),99.5%
same,residual activity,CSNK1G2 (human),84%
same,residual activity,EPHA5 (human),99.9%
same,residual activity,CSF1R (human),88.2%
same,residual activity,CLK2 (human),87.4%
same,residual activity,MAPK8 (human),102%
same,residual activity,STK25 (human),90.7%
same,residual activity,PRKD1 (human),93.3%
same,residual activity,MAPK14 (human),122%
same,residual activity,ADRBK2 (human),94.3%
same,residual activity,ALK (human),94.1%
same,residual activity,AKT3 (human),94.5%
same,residual activity,CDK6 CCND3 (human),93.7%
same,residual activity,EPHA2 (human),102%
same,residual activity,NUAK2 (human),133%
same,residual activity,NUAK1 (human),85.6%
same,residual activity,PTK2B (human),85.9%
same,residual activity,PRKCB1 (human),105%
same,residual activity,MATK (human),101%
same,residual activity,CDK1 CCNA2 (human),94.8%
same,residual activity,MAPK13 (human),89.6%
same,residual activity,MAPK10 (human),90.3%
same,residual activity,CDK1 CCNB1 (human),105%
Nc1nccc(-c2c(-c3ccc(F)cc3)ncn2C2CCNCC2)n1,residual activity,TTK (human),107%
same,residual activity,MAP3K14 (human),107%
same,residual activity,WNK2 (human),93.1%
same,residual activity,ROCK2 (human),103%
same,residual activity,RPS6KA3 KD1 KD2 (human),92.2%
same,residual activity,CAMK1D (human),103%
same,residual activity,CHEK2 (human),101%
same,residual activity,FER (human),98.3%
same,residual activity,TYRO3 (human),96.9%
same,residual activity,PRKCB2 (human),79.4%
same,residual activity,FGR (human),95.9%
same,residual activity,HIPK4 (human),96.6%
same,residual activity,NTRK3 (human),97.1%
same,residual activity,PRKCZ (human),106%
same,residual activity,PAK6 (human),111%
same,residual activity,PTK6 (human),73.4%
same,residual activity,IKBKE (human),99.5%
same,residual activity,PLK2 (human),93%
same,residual activity,GRK5 (human),103%
same,residual activity,NTRK2 (human),103%
same,residual activity,CSNK1G2 (human),119%
same,residual activity,EPHA5 (human),97.8%
same,residual activity,CSF1R (human),100%
same,residual activity,CLK2 (human),99.7%
same,residual activity,MAPK8 (human),94.8%
same,residual activity,STK25 (human),99.8%
same,residual activity,PRKD1 (human),54.6%
same,residual activity,ADRBK2 (human),97.6%
same,residual activity,ALK (human),102%
same,residual activity,AKT3 (human),92.6%
same,residual activity,CDK6 CCND3 (human),95.5%
same,residual activity,EPHA2 (human),102%
same,residual activity,NUAK2 (human),122%
same,residual activity,NUAK1 (human),98.4%
same,residual activity,PTK2B (human),94.6%
same,residual activity,PRKCB1 (human),91%
same,residual activity,MATK (human),99.5%
same,residual activity,CDK1 CCNA2 (human),92.7%
same,residual activity,MAPK10 (human),105%
same,residual activity,CDK1 CCNB1 (human),96.8%
